The values that follow come from US20110015371A1 (Vertex Pharmaceuticals Incorporated, priority 1994, published 2011).

For one experiment, the target named is T1, ICE (Homo sapiens, UniProt P29466).
T1 sequence (P29466 120-297 limits assumed): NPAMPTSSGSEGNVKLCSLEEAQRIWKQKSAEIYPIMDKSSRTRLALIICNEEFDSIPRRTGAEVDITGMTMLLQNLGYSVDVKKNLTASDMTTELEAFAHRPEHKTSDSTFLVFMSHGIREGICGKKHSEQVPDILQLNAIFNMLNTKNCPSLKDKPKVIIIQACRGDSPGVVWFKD
T1 sequence (P29466 317-404 limits assumed): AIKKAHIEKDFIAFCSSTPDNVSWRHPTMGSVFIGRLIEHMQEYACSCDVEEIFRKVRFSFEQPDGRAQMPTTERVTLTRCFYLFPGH
Briefly: Enzyme assay with UV-visible substrate (Succinyl-Tyr-Val-Ala-Asp-pNitroanilide). The class given is biochemical. The protocol: 1. Enzyme Assay with UV-Visible Substrate
This assay is run using an Succinyl-Tyr-Val-Ala-Asp-pNitroanilide substrate. Synthesis of analogous substrates is described by L. A. Reiter (Int. J. Peptide Protein Res. 43, 87-96 (1994)). The assay mixture contains:
The visible ICE assay is run in a 96-well microtiter plate. Buffer, ICE and DMSO (if inhibitor is present) are added to the wells in the order listed. The components are left to incubate at room temperature for 15 minutes starting at the time that all components are present in all wells. The microtiter plate reader is set to incubate at 37° C. After the 15 minute incubation, substrate is added directly to the wells and the reaction is monitored by following the release of the chromophore (pNA) at 405-603 nm at 37° C. for 20 minutes. A linear fit of the data is performed and the rate is calculated in mOD/min. DMSO is only present during experiments involving inhibitors, buffer is used to make up the volume to 100 μl in the other experiments.
For determination of enzyme inhibition constants (Ki) or the mode of inhibition (competitive, uncompetitive or noncompetitive), the rate data determined in the enzyme assays at varying inhibitor concentrations are computer-fit to standard enzyme kinetic equations (see I. H. Segel, Enzyme Kinetics, Wiley-Interscience, 1975).

The test system of experiment [1] is Human Peripheral Blood Mononuclear Cells (PBMC) or Enriched Adherent Mononuclear Cells. The experiment can be described thus: Cell assay: IL-1β assay with human PBMC or enriched adherent mononuclear cells. The experiment is classed as cell-based. The conditions noted are these: Homo sapiens, PBMC, LPS-stimulated cells, mature IL-1β in supernatant by ELISA. The source says: IL-1β Assay with a Mixed Population of Human Peripheral Blood Mononuclear Cells (PBMC) or Enriched Adherent Mononuclear Cells
Processing of pre-IL-1S by ICE can be measured in cell culture using a variety of cell sources. Human PBMC obtained from healthy donors provides a mixed population of lymphocyte subtypes and mononuclear cells that produce a spectrum of interleukins and cytokines in response to many classes of physiological stimulators. Adherent mononuclear cells from PBMC provides an enriched source of normal monocytes for selective studies of cytokine production by activated cells.
An initial dilution series of test compound in DMSO or ethanol is prepared, with a subsequent dilution into RPMI-10% FBS media (containing 2 mM L-glutamine, 10 mM HEPES, 50 U and 50 ug/ml pen/strep) respectively to yield drugs at 4× the final test concentration containing 0.4% DMSO or 0.4% ethanol. The final concentration of DMSO is 0.1% for all drug dilutions. A concentration titration which brackets the apparent Ki for a test compound determined in an ICE inhibition assay is generally used for the primary compound screen.
We generally test 5-6 compound dilutions and have performed the cellular component of the assay in duplicate, with duplicate ELISA determinations on each cell culture supernatant.
Buffy coat cells isolated from one pint human blood (yielding 40-45 ml final volume plasma plus cells) are diluted with media to 80 ml and LeukoPREP separation tubes (Becton Dickinson) are each overlaid with 10 ml of cell suspension. After 15 min centrifugation at 1500-1800×g, the plasma/media layer is aspirated and then the mononuclear cell layer is collected with a Pasteur pipette and transferred to a 15 ml conical centrifuge tube (Corning). Media is added to bring the volume to 15 ml, gently mix the cells by inversion and centrifuge at 300×g for 15 min. Resuspend the PBMC pellet in a small volume of media, count cells and adjust to 6×10^6 cells/ml.
For the cellular assay, add 1.0 ml of the cell suspension to each well of a 24-well flat bottom tissue culture plate (Corning), 0.5 ml test compound dilution and 0.5 ml LPS solution (Sigma #L-3012; 20 ng/ml solution prepared in complete RPMI media; final LPS concentration 5 ng/ml). The 0.5 ml additions of test compound and LPS are usually sufficient to mix the contents of the wells. Three control mixtures are run per experiment, with either LPS alone, solvent vehicle control, and/or additional media to adjust the final culture volume to 2.0 ml. The cell cultures are incubated for 16-18 hr at 37° C. in the presence of 5% CO2.
At the end of the incubation period, cells are harvested and transferred to 15 ml conical centrifuge tubes. After centrifugation for 10 min at 200×g, supernatants are harvested and transferred to 1.5 ml Eppendorf tubes. It may be noted that the cell pellet may be utilized for a biochemical evaluation of pre-IL-1S and/or mature IL-1β content in cytosol extracts by western blotting or ELISA with pre-IL-1β specific antisera.
PBMC are isolated and prepared as described above. Media (1.0 ml) is first added to wells followed by 0.5 ml of the PBMC suspension. After a one hour incubation, plates are gently shaken and nonadherent cells aspirated from each well. Wells are then gently washed three times with 1.0 ml of media and final resuspended in 1.0 ml media. The enrichment for adherent cells generally yields 2.5−3.0×10^5 cells per well. The addition of test compounds, LPS, cell incubation conditions and processing of supernatants proceeds as described above.
We have used Quantikine kits (R&D Systems) for measurement of mature IL-1β. Assays are performed according to the manufacturer's directions. Mature IL-1β levels of about 1-3 ng/ml in both PBMC and adherent mononuclear cell positive controls are observed. ELISA assays are performed on 1:5, 1:10 and 1:20 dilutions of supernatants from LPS-positive controls to select the optimal dilution for supernatants in the test panel.

Where a name gives a salt, the structure may show the parent alone. Non-standard residues stand in square brackets, D forms with d. Residues, ends and D or L forms follow the SMILES beside them. *: point of attachment. Pro(4R-OPh) = O=C(O)[C@@H]1C[C@@H](Oc2ccccc2)CN1; Hyp = O=C(O)[C@@H]1C[C@@H](O)CN1; Bn = c1ccc(C*)cc1

For the molecule `CC(C(=O)N[C@H](C=O)CC(=O)O)n1c(Cc2ccccc2)ccc(NC(=O)CCc2ccccc2)c1=O` (mixture of isomers) [Compound 54h, 3(S), N(2(R,S))3-(2-(6-Benzyl-1,2-dihydro-2-oxo-3-(3-phenylpropionyl)amino-1-pyridyl)propionylamino)-4-oxobutanoic acid], at ICE (Example 4 table), the Ki was determined as 0.97 µM.

Molecule `O=CC(CC(=O)O)NC(=O)C1CCc2ncc(NC(=O)c3ccccc3)c(=O)n21` (single isomer, unassigned) [Compound 7a] returned an inhibitory constant (Ki) at ICE (Example 4 table) of 35 µM.

For the molecule `O=CC(CC(=O)O)NC(=O)C1CCc2ncc(NC(=O)c3ccccc3)c(=O)n21` (single isomer, unassigned) [Compound 7b], on ICE (Example 4 table), affinity was put at a Ki of 1.2 µM.

`O=C[C@H](CC(=O)O)NC(=O)CN(CCc1ccccc1)C(=O)c1ncc(CCCc2ccccc2)[nH]1` [Compound 25, (3S)-(2-{Phenethyl-[5-(3-phenylpropyl)-1H-imidazole-2-carbonyl]amino}acetylamino)-4-oxobutanoic acid trifluoroacetic acid salt]: the Ki at ICE (Example 4 table) stood at 6.2 µM.

On ICE (Example 4 table), `O=C[C@H](CC(=O)O)NC(=O)Cn1c(-c2ccccc2)ccc(NC(=O)CCc2ccccc2)c1=O` [Compound 54f, 3(S)3-(1,2-Dihydro-2-oxo-6-phenyl-3-(3-phenyl-propionyl)amino-1-pyridyl)acetylamino-4-oxobutanoic acid] had a Ki of 0.9 µM.

On to `O=C[C@H](CC(=O)O)NC(=O)CN1CCCC[C@H](NC(=O)CCc2ccc(O)cc2)C1=O` [Compound 92, 3-(S)-(2-(3[3-(S)-(4-Hydroxy-phenyl)-propionylamino]-2-oxo-azepan-1-yl)-acetylamino)-4-oxo-butyric acid], for which the Ki on ICE (Example 6 table) is 3.8 µM.

In the case of `O=C(O)C[C@H](NC(=O)[C@@H]1CCc2ncc(NC(=O)CCc3ccccc3)c(=O)n21)C(=O)c1ncc(-c2c(Cl)cccc2Cl)o1` [Compound 102c, 4-[5-(2,6-Dichloro-phenyl)-oxazol-2-yl]-4-oxo-(3S)-{[4-oxo-3-(3-phenyl-propionylamino)-4,6,7,8-tetrahydro-pyrrolo[1,2-a]pyrimidine-(6S)-carbonyl]-amino}-butyric acid], the Ki at ICE (Example 6 table) worked out at 0.68 µM.

With `C[C@H](NC(=O)CN1C(=O)[C@@H](NC(=O)CCc2ccccc2)CN(C(=O)CCc2ccccc2)c2ccccc21)C(=O)C(=O)O` [Compound 106b, 2-Oxo-3(S)-{2-[2-oxo-5-(3-phenylpropionyl)-3(S)-(3-phenyl-propionyl-amino)-2,3,4,5-tetrahydrobenzo[b][1,4]diazepin-1-yl]acetylamino}butyric acid], in experiment [1] (Example 6 table), the concentration for half-maximal inhibition (IC50) is 2.9 µM.

As to `O=C(O)C[C@H](NC(=O)CN1C(=O)[C@@H](NC(=O)CCc2ccccc2)CN(C(=O)CCc2ccccc2)c2ccccc21)C(=O)COC(=O)c1c(Cl)cccc1Cl` [Compound 108a, 2,6-Dichlorobenzoic acid 4-carboxy-2-oxo-3(S)-{2-[2-oxo-5-(3-phenylpropionyl)-3(S)-(3-phenylpropionylamino)-2,3,4,5-tetrahydrobenzo[b][1,4]diazepin-1-yl]acetylamino}butyl ester], in experiment [1] (Example 6 table), half-maximal inhibition (IC50) required 17.5 µM.

For the molecule `O=C[C@H](CC(=O)O)NC(=O)CN1CCN(Cc2ccccc2)C[C@H](NC(=O)OCc2ccccc2)C1=O` [Compound 114b, 3(S)-{2-[4-Benzyl-7-oxo-6(S)—(N-benzyloxycarbonylamino)-[1,4]diazepan-1-yl]-acetylamino}-4-oxo-butyric acid trifluoroacetic acid salt], at ICE (Example 6 table), the affinity corresponds to a Ki of 3.7 µM.

Consider `C[C@@H](C(=O)N[C@@H](CC(=O)O)C(=O)COC(=O)c1c(Cl)cccc1Cl)n1cccc(NC(=O)CCc2ccccc2)c1=O` [Compound 130], for which it took 1.2 µM to reach half-maximal inhibition in experiment [1] (Example 6 table) (IC50).

`O=C[C@H](CC(=O)O)NC(=O)[C@@H]1CCCN2C(=O)C[C@@H](NC(=O)CCc3ccccc3)C(=O)N12` [Compound 132b]: at ICE (Example 6 table), the affinity, expressed as Ki, was 12.5 µM.

`O=C(O)C[C@H](NC(=O)[C@@H]1CCCN2C(=O)CC[C@H](NC(=O)CCc3ccccc3)C(=O)N12)C(=O)COC(=O)c1c(Cl)cccc1Cl` [Compound 136] returned an IC50 in experiment [1] (Example 6 table) of 1 µM.

In experiment [1] (Example 6 table), `CS(=O)(=O)N[C@H]1CCC(=O)N2CCC[C@@H](C(=O)N[C@@H](CC(=O)O)C(=O)COC(=O)c3c(Cl)cccc3Cl)N2C1=O` [Compound 138] had an IC50 of 0.375 µM.

As for `O=C[C@H](CC(=O)O)NC(=O)[C@@H]1CS[C@@H]2CCC[C@H](NC(=O)CCc3ccccc3)C(=O)N21` [Compound 141], the Ki on ICE (Example 6 table) was 0.67 µM.

The molecule `C[C@H](NC(=O)c1ncc[nH]1)C(=O)N[C@@H](CC(=O)O)C(=O)COC(=O)c1c(Cl)cccc1Cl` [Compound 142] showed an IC50 in experiment [1] (Example 6 table) of 1.75 µM.

As to `CC(C)[C@H](NC(=O)OCc1ccccc1)C(=O)N[C@@H](C)C(=O)N[C@@H](CC(=O)O)C(=O)c1ncco1` [Compound 152], the Ki at ICE (Example 6 table) stood at 8.8 µM.

In the case of `CC(C)[C@H](NC(=O)OCc1ccccc1)C(=O)N[C@@H](C)C(=O)N[C@@H](CC(=O)O)C(=O)c1nc(-c2ccccc2)co1` [Compound 153], the inhibition constant (Ki) on ICE (Example 6 table) worked out at 0.24 µM.

On ICE (Example 6 table), `CC(=O)N[C@@H](Cc1ccc(O)cc1)C(=O)N[C@H](C(=O)N1CCC[C@H]1C(=O)N[C@@H](CC(=O)O)C(=O)c1ncc(-c2c(Cl)cccc2Cl)o1)C(C)C` [Compound 155] returned a Ki of 0.023 µM.

Molecule `CC(=O)N[C@@H](Cc1ccc(O)cc1)C(=O)N[C@H](C(=O)N1C[C@H](OCc2ccccc2)C[C@H]1C(=O)N[C@H](C=O)CC(=O)O)C(C)C` [Compound K, N-[N-Acetyl-tyrosinyl-valinyl-(4-benzyloxy)prolinyl]-3-amino-4-oxobutanoic acid] (Ac-YV[Hyp](Bn)D-aldehyde) returned an IC50 in experiment [1] (Example 2 table) of 2 to 11 µM.

`CC(=O)N[C@@H](Cc1ccc(O)cc1)C(=O)N[C@H](C(=O)N1C[C@H](Oc2ccccc2)C[C@H]1C(=O)N[C@H](C=O)CC(=O)O)C(C)C` [I, N-(N-Acetyl-tyrosinyl-valinyl-(4-phenoxyprolinyl))-3-amino-4-oxobutanoic acid] (Ac-YV[Pro(4R-OPh)]D-aldehyde): 2.6 µM corresponded to half-maximal inhibition in experiment [1] (Example 2 table) (IC50).

`CC(=O)N[C@@H](Cc1ccc(O)cc1)C(=O)N[C@H](C(=O)N1C[C@H](O)C[C@H]1C(=O)N[C@H](C=O)CC(=O)O)C(C)C` [J, N-[N-Acetyl-tyrosinyl-valinyl-(4-hydroxyprolinyl)]-3-amino-4-oxobutanoic acid] (Ac-YV[Hyp]D-aldehyde) had a half-inhibitory concentration (IC50) in experiment [1] (Example 2 table) of 5 to 7 µM.
